The values that follow come from publication PMC12226405 (Aging Medicine, 2025).

One series has as its system lumbar spine (L2–L4) BMD. More on the design: method as in PMID 31243480. The note with it: study of biosimilar approved in Japan; cited from earlier work.
The next series deals with femoral neck BMD. Set-up: method as in PMID 11346808. The note with it: Fracture Prevention Trial; after 2 years of 20 μg daily; cited from earlier work.
A further series relates to lumbar spine BMD. Set-up: method as in PMID 11346808. The note with it: Fracture Prevention Trial; after 2 years of 20 μg daily; cited from earlier work.
On the set-up of series [1]: method as in PMID 31243480. The note with it: Fracture Prevention Trial; 20 μg; cited from earlier work.
Series [2] concerns femoral neck BMD in postmenopausal women with osteoporosis. Briefly: Percent change in femoral neck BMD by DXA, phase III study. The class given is in vivo, human. The note with it: for percent change in femoral neck BMD from baseline to 48 weeks (LSM ± SE): as given in the abstract, population not given; for percent change in femoral neck BMD from baseline to 48 weeks (LSM ± SE) / Percent change in femoral neck BMD from baseline at Week 24, LSM ± SE / Percent change in femoral neck BMD from baseline at Week 48, LSM ± SE: 20 μg s.c. once daily; for Percent change in femoral neck BMD from baseline at Week 24, LSM ± SE / Percent change in femoral neck BMD from baseline at Week 48, LSM ± SE: mITT population, LOCF, DXA. The protocol:
(§1) A multicenter, randomized, active‐controlled, double‐blind, parallel‐group phase III study was conducted between August 2018 and August 2020 at 17 sites in India. The study was conducted as per the principles and requirements of the Declaration of Helsinki (2013), and ICH‐GCP (E6‐R2, Step 4) guidelines along with the local regulatory requirements of Good Clinical Practices for Clinical Research in India (2004), ICMR guidelines for Biomedical Research on Human Subjects (2017) and New Drugs and Clinical Trial Rules, 2019 (CDSCO) and after approvals from respective Institutional Ethics Committees. The study was registered on the Clinical Trial Registry of India (CTRI/2018/05/014254).
(§2) After signing of the informed consent form, the subjects were screened to assess eligibility according to the study selection criteria. Postmenopausal women between the ages of 50–80 years with BMD T‐SCORE less than −2.5 at the lumbar spine or femoral neck were enrolled in the study.
(§3) All participants were provided with daily oral supplementation of 1000 mg of calcium and 500 IU of vitamin D3.
(§4) Medications known to affect bone metabolism, such as bisphosphonates, raloxifene, and denosumab, as well as drugs associated with reduced bone density, including glucocorticoids, aromatase inhibitors, and tamoxifen, were prohibited during the study. Throughout the treatment period, data were collected for primary and secondary endpoints. BMD was evaluated using dual‐energy X‐ray absorptiometry (DXA) as part of the efficacy assessments. Laboratory samples were collected during the treatment phase to support efficacy and safety evaluations, and all laboratory analyses were conducted at a central laboratory.
(§5) The primary endpoint of the study was the percent change in BMD of the lumbar spine and proximal femur, assessed using dual‐energy X‐ray absorptiometry (DXA) from baseline to Weeks 24 and 48. All DXA measurements were analyzed centrally, and the results were not disclosed to individual study centers to ensure unbiased interpretation. Secondary endpoints included the change from baseline in the pharmacodynamic parameter serum P1NP (procollagen type 1 N terminal propeptide), which was assessed at randomization and Weeks 12, 24, and 48. […] Serum biochemistry analyses were performed at baseline and at Weeks 4, 12, 24, and 48.
(§6) The efficacy analysis was performed on all the subjects in mITT (modified intention‐to‐treat) and PP (per protocol) population. Any missing postbaseline data were imputed using the last observation carried forward (LOCF) procedure. For the analysis of change from baseline to Week 12 (for P1NP), Week 24, and Week 48, a regression model with percent change from baseline as the response variable and the stratification variable was used for randomization, and treatment as independent variables was fit to test the mean difference between the two treatments in percent change. Adjusted least square mean (LSM) and the standard error values along with the p value and the 95% confidence interval (CI) of the difference were presented.

Series [3] deals with lumbar spine BMD in postmenopausal women with osteoporosis. The experiment in a line: Percent change in lumbar spine BMD by DXA, phase III study. The format is in vivo, human. Conditions: for Percent change in lumbar spine BMD from baseline at Week 24, LSM ± SE / Percent change in lumbar spine BMD from baseline at Week 48, LSM ± SE: mITT population, LOCF, 20 μg s.c. once daily, DXA. The procedure: as §1, §2, §3, §4, §5, §6

The test system of series [4] is serum P1NP (procollagen type 1 N terminal propeptide). Briefly: Change from baseline in serum P1NP (bone turnover marker). The class given is in vivo, human. The note with it: mITT population; 20 μg s.c. once daily. The protocol:
as §3, §5, §6

Series [5] in a line: Pharmacokinetic sub-study, plasma teriparatide on Day 1. The class given is in vivo, human. Conditions: Day 1, 20 μg s.c., sampling to 240 min, noncompartmental, n = 15 per arm. The protocol: Pharmacokinetic (PK) assessments were performed on a subset of subjects who voluntarily consented to participate in an additional PK sub‐study alongside the main study. […] Blood samples for PK analysis were collected at the study site on Day 1 (Visit 2, i.e., the randomization visit) at specified time points: pre‐dose (within 30 min before the first investigational product [IP] administration) and at 5‐, 10‐, 20‐, 30‐, 45‐, 60‐, 90‐, 120‐, 180‐, and 240‐min post‐IP administration.
PK parameters (C max, AUC0–t , and T max) measured in plasma were calculated by noncompartmental methods, using Phoenix software for the PK population on Day 1. Descriptive statistics (number of subjects [n], mean, standard deviation, median, minimum, and maximum [range]) were calculated for all evaluable PK parameters by treatment group for the PK population.

Setting [6] is: biosimilar versus reference teriparatide, mITT.
Where [7] appears, read: versus reference teriparatide, Week 24 and Week 48, mITT.
Setting [8] is: listed as Proposed biosimilar teriparatide (T).
Setting [9] is: listed as Reference teriparatide (R).

For “RGB‐10: proposed biosimilar teriparatide approved in Japan”, in the series on lumbar spine (L2–L4) BMD, the “percent change from baseline to 52 weeks in lumbar spine (L2–L4) BMD (mean ± SE)” value is given as 8.94% ± 6.19%.
Regarding teriparatide, in the series on femoral neck BMD, the “percentage increase in BMD at the femoral neck (mean ± SE)” value was 2.8 ± 5.7%. For the same substance, the “percentage increase in BMD at the lumbar spine (mean ± SE)” value in the series with lumbar spine BMD is 9.7 ± 7.4%. Besides, in series [1], the TEAE dizziness is 9% and the TEAE leg cramps is on record as 3%.
Turning to teriparatide [Biosimilar teriparatide], the “estimated between-group difference (95% CI), femoral neck BMD percent change to 48 weeks” value in series [2] (abstract, biosimilar versus reference, noninferiority margin −1.44%) was 1.44%. For the same substance, in series [2], the “percent change in femoral neck BMD from baseline to 48 weeks (LSM ± SE)” value was 3.94% ± 0.83; the “Percent change in femoral neck BMD from baseline at Week 24, LSM ± SE” value turned out to be 3.37 ± 0.78%; the “Percent change in femoral neck BMD from baseline at Week 48, LSM ± SE” value is 4.03 ± 0.96 (p = 0.003) %. In series [2] (setting [6]), the “LSM difference (95% CI), femoral neck BMD percent change at Week 24” value is 1.576 (−1.048, 4.199) and the “LSM difference (95% CI), femoral neck BMD percent change at Week 48” value is reported as 0.173 (−3.146, 3.493). Moreover, in series [2] (setting [7]), the “noninferiority in femoral neck BMD percentage change” value was “noninferiority”. Moreover, the “estimated between-group difference (95% CI), lumbar spine BMD percent change to 48 weeks” value in series [3] (abstract, biosimilar versus reference, noninferiority margin −2.43%) is reported as −0.56%. Besides, in series [3] (setting [6]), the “LSM difference (95% CI), lumbar spine BMD percent change at Week 24” value is −0.410 (−3.191, 2.372) and the “LSM difference (95% CI), lumbar spine BMD percent change at Week 48” value was −0.754 (−4.011, 2.502). In addition, in series [3], the “Percent change in lumbar spine BMD from baseline at Week 24, LSM ± SE” value is listed as 7.16 ± 0.82% and the “Percent change in lumbar spine BMD from baseline at Week 48, LSM ± SE” value worked out at 8.46 ± 0.94%. Besides, in series [3] (setting [7]), the “noninferiority in lumbar spine BMD percentage change” value is “noninferiority”. In series [4], the “Serum P1NP concentration, change from baseline to Week 12 (LSM ± SE)” value was determined as 24.38 ± 4.44; the “Serum P1NP concentration, change from baseline to Week 24 (LSM ± SE)” value came out at 33.05 ± 7.00; the “Serum P1NP concentration, change from baseline to Week 48 (LSM ± SE)” value is on record as 48.52 ± 7.24. Also, in series [5] (setting [8]), the “AUC(0–t), geometric least squares mean” value was found to be 6132.45 min and the “C max, geometric least squares mean” value came to 0.10879 ng/mL.
Turning to “teriparatide [Reference teriparatide, reference compound]”, in series [2], the “percent change in femoral neck BMD from baseline to 48 weeks (LSM ± SE)” value was 2.50% ± 1.20; the “Percent change in femoral neck BMD from baseline at Week 24, LSM ± SE” value was found to be 1.79 ± 1.07%; the “Percent change in femoral neck BMD from baseline at Week 48, LSM ± SE” value is 3.86 ± 1.24 (p = 0.024) %. Besides, the “percent change from baseline to 52 weeks in lumbar spine (L2–L4) BMD (mean ± SE)” value in the series on lumbar spine (L2–L4) BMD is 9.65% ± 6.22%. Also, in series [3], the “Percent change in lumbar spine BMD from baseline at Week 24, LSM ± SE” value stood at 7.57 ± 1.13% and the “Percent change in lumbar spine BMD from baseline at Week 48, LSM ± SE” value turned out to be 9.22 ± 1.34%. In series [4], the “Serum P1NP concentration, change from baseline to Week 12 (LSM ± SE)” value is recorded as 21.95 ± 6.02; the “Serum P1NP concentration, change from baseline to Week 24 (LSM ± SE)” value was 51.07 ± 9.63; the “Serum P1NP concentration, change from baseline to Week 48 (LSM ± SE)” value stood at 34.30 ± 9.98. Further, in series [5] (setting [9]), the “AUC(0–t), geometric least squares mean” value was 6387.59 min and the “C max, geometric least squares mean” value is 0.10589 ng/mL.
